In turn, `CCCn1c(CCCc2ccc(OC(C)(C)C(=O)O)cc2)nn(Cc2ccc(C)cc2)c1=O` gave a melting point of 94 to 96.5 °C.

Take `CCCn1c(CCCc2ccc(OC)cc2)nn(Cc2ccc(C)cc2)c1=O` [Example 118, 5-[3-(4-Methoxyphenyl)-propyl]-2-(4-methylbenzyl)-4-propyl-2,4-dihydro[1,2,4]tria-zol-3-one]: the melting point is 86.5 to 88.2 °C.

These data come from US7304062B2, “Peroxisome proliferator activated receptor alpha agonists” (Eli Lilly and Company, priority 2000, dated 2007).
